Assay results: PubChem BioAssay (NCI)
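Interpolation was linear, between the two tested concentrations surrounding the appropriate level; five concentrations were tested over 48 hours in 96-well plates. At the GI50, growth is halved. TGI is the concentration that stops growth completely.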

Assays:
Test in all cases: DTP human tumour cell line panel, 48 h
U251 CNS = tested on: U251 CNS
IGROV1 ovarian = tested on: IGROV1 ovarian
UACC-62 melanoma = tested on: UACC-62 melanoma
COLO 205 colon = tested on: COLO 205 colon
OVCAR-5 ovarian = tested on: OVCAR-5 ovarian
HCT-116 colon = tested on: HCT-116 colon
MDA-MB-435 = tested on: MDA-MB-435
NCI-H226 lung = tested on: NCI-H226 lung
A549 NSCLC = tested on: A549 NSCLC
MCF7 breast = tested on: MCF7 breast
UACC-257 melanoma = tested on: UACC-257 melanoma
786-0 renal = tested on: 786-0 renal
OVCAR-4 ovarian = tested on: OVCAR-4 ovarian
PC-3 prostate = tested on: PC-3 prostate
SF-539 CNS = tested on: SF-539 CNS
SW-620 colon = tested on: SW-620 colon
SK-MEL-28 melanoma = tested on: SK-MEL-28 melanoma
OVCAR-3 ovarian = tested on: OVCAR-3 ovarian
LOX IMVI melanoma = tested on: LOX IMVI melanoma
KM12 colon = tested on: KM12 colon
RPMI-8226 leukemia = tested on: RPMI-8226 leukemia
MDA-MB-231 breast = tested on: MDA-MB-231 breast
SNB-19 CNS = tested on: SNB-19 CNS
OVCAR-8 ovarian = tested on: OVCAR-8 ovarian
EKVX NSCLC = tested on: EKVX NSCLC
HCT-15 colon = tested on: HCT-15 colon

SMILES: Nc1nnc2cc(Cl)ccc2n1
- GI50 (U251 CNS): > 100 µM
- TGI (U251 CNS): > 100 µM
- GI50 (IGROV1 ovarian): 34.3 µM
- TGI (IGROV1 ovarian): > 100 µM
- GI50 (UACC-62 melanoma): > 100 µM
- TGI (UACC-62 melanoma): > 100 µM
- GI50 (COLO 205 colon): > 100 µM
- TGI (COLO 205 colon): > 100 µM
- GI50 (OVCAR-5 ovarian): > 100 µM
- TGI (OVCAR-5 ovarian): > 100 µM
- GI50 (HCT-116 colon): > 100 µM
- TGI (HCT-116 colon): > 100 µM
- GI50 (MDA-MB-435): > 100 µM
- TGI (MDA-MB-435): > 100 µM
- GI50 (NCI-H226 lung): > 100 µM
- TGI (NCI-H226 lung): > 100 µM
- GI50 (A549 NSCLC): 73.2 µM
- TGI (A549 NSCLC): > 100 µM
- GI50 (MCF7 breast): > 100 µM
- TGI (MCF7 breast): > 100 µM
- GI50 (UACC-257 melanoma): > 100 µM
- TGI (UACC-257 melanoma): > 100 µM
- GI50 (786-0 renal): > 100 µM
- TGI (786-0 renal): > 100 µM
- GI50 (OVCAR-4 ovarian): > 100 µM
- TGI (OVCAR-4 ovarian): > 100 µM
- GI50 (PC-3 prostate): 24.4 µM
- TGI (PC-3 prostate): > 100 µM
- GI50 (SF-539 CNS): > 100 µM
- TGI (SF-539 CNS): > 100 µM
- GI50 (SW-620 colon): > 100 µM
- TGI (SW-620 colon): > 100 µM
- GI50 (SK-MEL-28 melanoma): > 100 µM
- TGI (SK-MEL-28 melanoma): > 100 µM
- GI50 (OVCAR-3 ovarian): > 100 µM
- TGI (OVCAR-3 ovarian): > 100 µM
- GI50 (LOX IMVI melanoma): > 100 µM
- TGI (LOX IMVI melanoma): > 100 µM
- GI50 (KM12 colon): > 100 µM
- TGI (KM12 colon): > 100 µM
- GI50 (RPMI-8226 leukemia): > 100 µM
- TGI (RPMI-8226 leukemia): > 100 µM
- GI50 (MDA-MB-231 breast): > 100 µM
- TGI (MDA-MB-231 breast): > 100 µM
- GI50 (SNB-19 CNS): > 100 µM
- TGI (SNB-19 CNS): > 100 µM
- GI50 (OVCAR-8 ovarian): > 100 µM
- TGI (OVCAR-8 ovarian): > 100 µM
- GI50 (EKVX NSCLC): 23.6 µM
- TGI (EKVX NSCLC): > 100 µM
- GI50 (HCT-15 colon): > 100 µM
- TGI (HCT-15 colon): > 100 µM
